Like-named read-outs stand apart in the source and are kept apart here.
Columns and labels:
human whole blood = assay: Human Whole Blood assay (HWB; pantothenic acid formation from D-Pantethine); assay type: cell-based; conditions: 10 μM D-Pantethine, 30 minutes at room temperature, geometric mean if multiple measurements
Description: 250 μl human whole blood and 7 μl pre-diluted compound in RPMI 1640 media are incubated at room temperature for 15 minutes on an orbital shaker. 10 μl of D-Pantethine (Sigma, Cat#P2125-5G) is added, resulting in 10 μM final concentration, for additional 30 minutes incubation at room temperature. The reaction is stopped by placed on ice for 5 minutes. Assay plates are centrifuged at 1800 rpm at 4° C. for 10 minutes. 80 μl of plasma is mixed with 80 μl of ice-cold acetonitrile and is left on ice for 5 minutes. The reaction mixture is centrifuged at 4000 rpm for 10 min at 4° C. 50 μl of the supernatant is mixed with 150 μl of ice-cold H2O. The above solution is mixed with equal volume of stop solution to reach 5 nM Nevirapine (as an internal standard) and 0.4% TFA. The mixture is centrifuged at 4000 rpm for 10 minutes. The formation of pantothenic acid is detected by RapidFire Mass Spectrometry (mobile phase A: 0.1% Formic acid in water, mobile phase B: 100% Methanol) using graphitic carbon cartridge (Agilent Cat #G9206A). Please see Table I for results. The values given in Table I result from measurements of one or more samples. In case of multiple measurements the geometric mean values are given.

[1] = molecular target: FLAG-tagged Vanin-1 (AA 22-493, T26I) (Homo sapiens (Human), UniProt O95497, T26I); assay: Vanin-1 enzymatic assay (pantothenic acid formation, RapidFire Mass Spectrometry); assay type: biochemical; conditions: read-out: VNN 1 IC50
Description: The test compounds are dissolved in 100% DMSO at a concentration of 10 mM and in a first step diluted in DMSO to a concentration of 5 mM, followed by serial dilution steps in 100% DMSO. Dilution factor and number of dilution steps may vary according to needs. Typically 8 different concentrations by 1:5 dilutions are prepared, a further intermediate dilutions of the substances is carried out with assay buffer resulting in 1% final DMSO concentration in the assay.
Method 1): 0.15 nM of FLAG-tagged Vanin-1 (AA 22-493, T26I, produced internally) and test compounds are incubated at room temperature for 15 minutes in assay buffer (1 mM DTT, 0.0025% Brij-35, 50 mM HEPES, pH7.5). 3 μM D-Pantethine (Sigma, Cat#P2125-5G) in assay buffer is added and incubated for additional 30 minutes at room temperature. Reaction is stopped by adding equal volume of stop solution as the reaction mixture to reach 5 nM Nevirapine (as an internal standard) and 0.5% TFA. Assay plates are centrifuged for 2 minutes and the formation of pantothenic acid is detected by RapidFire Mass Spectrometry (mobile phase A: 0.1% formic acid in water, mobile phase B: 100% methanol) using graphitic carbon cartridge (Agilent Cat #G9206A).
Method 2): 0.1 nM of FLAG-tagged Vanin-1 (AA 22-493, T26I, produced internally) and test compounds are incubated at room temperature for 20 minutes in assay buffer (1 mM DTT, 0.0025% Brij-35, 50 mM HEPES, pH7.5). D-Pantethine (Sigma, Cat#P2125-5G) in assay buffer is added (final concentration 3 μM) and incubated for additional 30 minutes at room temperature. Total assay volume typically is 40 μl but might be adjusted according to needs. Reaction is stopped by adding equal volume of stop solution as the reaction mixture to reach 100 nM HD-pantothenic acid (as an internal standard) and 1% TFA. Assay plates are centrifuged for 2 minutes and the formation of pantothenic acid is detected by RapidFire Mass Spectrometry (mobile phase A: 0.1% formic acid and 0.01% trifluoroacetic acid in water; mobile phase B: 47.5% acetonitrile, 47.5% methanol, 0.1% formic acid and 0.01% trifluoroacetic acid in water) using a C18, 12 μL cartridge (Agilent Cat #G9205A).
The values given in Table I result from measurements of one or more samples. In case of multiple measurements the geometric mean values determined by method 1 and/or method 2 are given.

[2] = VNN1-assay methods 1 + 2: geometric mean of values determined by method 1 and method 2
[3] = VNN1-assay method 2: 0.1 nM Vanin-1, 20 min preincubation, 3 μM D-Pantethine, geometric mean if multiple measurements
[4] = VNN1-assay method 1: 0.15 nM Vanin-1, 15 min preincubation, 3 μM D-Pantethine, geometric mean if multiple measurements

Sequence of FLAG-tagged Vanin-1 (AA 22-493, T26I) (O95497 22-493 T26I): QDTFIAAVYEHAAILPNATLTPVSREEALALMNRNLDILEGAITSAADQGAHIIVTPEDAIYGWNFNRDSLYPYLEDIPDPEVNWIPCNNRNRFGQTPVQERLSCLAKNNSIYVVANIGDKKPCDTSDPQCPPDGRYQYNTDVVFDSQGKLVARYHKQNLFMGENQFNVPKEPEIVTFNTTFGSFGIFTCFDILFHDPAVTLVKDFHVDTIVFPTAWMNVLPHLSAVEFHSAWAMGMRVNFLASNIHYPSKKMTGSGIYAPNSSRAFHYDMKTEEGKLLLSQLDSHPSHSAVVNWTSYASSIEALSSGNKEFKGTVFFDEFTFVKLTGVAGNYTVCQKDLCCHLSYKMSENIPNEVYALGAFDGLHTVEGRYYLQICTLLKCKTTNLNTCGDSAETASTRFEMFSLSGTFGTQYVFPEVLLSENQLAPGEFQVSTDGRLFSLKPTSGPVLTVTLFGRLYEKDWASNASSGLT

| Compound | IC50 (human whole blood; Homo sapiens, 0.5 h) | IC50 [1, 2] | IC50 [1, 3] | IC50 [1, 4] | IC50 (human whole blood) |
| --- | --- | --- | --- | --- | --- |
| CC(=O)N(C)[C@H]1CCN(C(=O)c2cnc3c(c2)OCCC2(CC2)N3)C1 [Example 37] | 6.3 nM | 0.2 nM |  |  |  |
| C[C@H]1CNc2ncc(C(=O)N3CCC(c4ccncc4)C3)cc2O1 (some centres unmarked) [Example 34] | 44 nM | 3.5 nM |  |  |  |
| O=C(c1cnc2c(c1)OCC1(CC1)N2)N1CC[C@H](N2CCCC2=O)C1 [Example 15] | 7.8 nM |  | 0.7 nM |  |  |
| O=C(c1cnc2c(c1)O[C@H](CO)CN2)N1CCC(c2ccncc2)C1 (some centres unmarked) [Example 43] | 66 nM |  |  |  |  |
| CC[C@@H]1COc2cc(C(=O)N3CC[C@H](N(C)C(C)=O)C3)cnc2N1 [Example 1] | 20 nM | 3.3 nM |  |  |  |
| CC(=O)N(C)[C@H]1CCN(C(=O)c2cnc3c(c2)OCCN3)C1 [Example 39] | 120 nM |  |  |  |  |
| CN1C(=O)CC[C@@]12CCN(C(=O)c1cnc3c(c1)OCCC1(CC1)N3)C2 [Example 24] | 6.5 nM |  | 0.6 nM |  |  |
| CC(=O)N(C)[C@H]1CCN(C(=O)c2cnc3c(c2)OC[C@@H](C)N3)C1 [Example 29] | 28 nM | 3.3 nM |  |  |  |
| CC(C)[C@H]1COc2cc(C(=O)N3CCC(c4ccncc4)C3)cnc2N1 (some centres unmarked) [Example 10] | 146 nM |  |  | 2.4 nM |  |
| C[C@@H]1COc2cc(C(=O)N3CCC(c4cccnc4)C3)cnc2N1 (some centres unmarked) [Example 28] | 168 nM |  |  | 3.8 nM |  |
| CC[C@H]1COc2cc(C(=O)N3CCC(c4ccncc4)C3)cnc2N1 (some centres unmarked) [Example 5] | 76 nM | 3.1 nM |  |  |  |
| CC(=O)N(C)[C@H]1CCN(C(=O)c2cnc3c(c2)O[C@@H](C)CN3)C1 [Example 35] | 190 nM | 26.1 nM |  |  |  |
| O=C(c1cnc2c(c1)OC[C@@H](c1ccccc1)N2)N1CCC(c2ccncc2)C1 (some centres unmarked) [Example 7] |  |  |  | 6200 nM |  |
| O=C(c1cnc2c(c1)OCC1(CC1)N2)N1CCC(c2ccncc2)C1 (single isomer, unassigned) [Example 20] |  |  |  | 1.9 nM | 130 nM |
| O=C(c1cnc2c(c1)OC[C@H](c1ccccc1)N2)N1CCC(c2ccncc2)C1 (single isomer, unassigned) [Example 11] |  |  |  | 19 nM | 3700 nM |
| CN(C(=O)C1COC1)[C@H]1CCN(C(=O)c2cnc3c(c2)OCC2(CC2)N3)C1 [Example 18] | 12 nM |  | 0.9 nM |  |  |
| CN([C@H]1CCN(C(=O)c2cnc3c(c2)OCC2(CC2)N3)C1)S(=O)(=O)C1CC1 [Example 19] | 39 nM |  | 2.3 nM |  |  |
| CC(=O)N(C)[C@H]1CCN(C(=O)c2cnc3c(c2)OCCCN3)C1 [Example 44] | 23 nM |  |  |  |  |
| CC[C@H]1COc2cc(C(=O)N3CC[C@H](N(C)C(C)=O)C3)cnc2N1 [Example 4] | 22 nM |  |  | 1.3 nM |  |
| CC(=O)N(C)[C@H]1CCN(C(=O)c2cnc3c(c2)OC[C@H](C(C)C)N3)C1 [Example 9] | 23 nM |  |  | 1.5 nM |  |
| C[C@H]1COc2cc(C(=O)N3CCC(c4ccncc4)C3)cnc2N1 (some centres unmarked) [Example 40] | 87 nM | 1.7 nM |  |  |  |

| Compound | IC50 (human whole blood; Homo sapiens, 0.5 h) | IC50 [1, 2] | IC50 [1, 3] | IC50 [1, 4] | IC50 (human whole blood) |
| --- | --- | --- | --- | --- | --- |
| O=C(c1cnc2c(c1)OC[C@H](c1ccccc1)N2)N1CCC(c2ccncc2)C1 (single isomer, unassigned) [Example 12] |  |  |  | 1.8 nM | 330 nM |
| O=C(c1cnc2c(c1)OCCC1(CC1)N2)N1CC[C@H](N2CCOC2=O)C1 [Example 26] | 5.9 nM |  | 0.2 nM |  |  |
| CN1C(=O)CC[C@]12CCN(C(=O)c1cnc3c(c1)OCCC1(CC1)N3)C2 [Example 23] | 50 nM |  | 8.1 nM |  |  |
| O=C(c1cnc2c(c1)OCC1(CC1)N2)N1CC[C@H](N2CCOC2=O)C1 [Example 16] | 8.9 nM |  | 0.6 nM |  |  |
| CC(C)[C@@H]1COc2cc(C(=O)N3CCC(c4ccncc4)C3)cnc2N1 (some centres unmarked) [Example 8] |  |  |  | 17.2 nM |  |
| CC(=O)N(C)[C@H]1CCN(C(=O)c2cnc3c(c2)O[C@H](C)CN3)C1 [Example 32] | 14 nM |  |  |  |  |
| CC(=O)N(C)[C@H]1CCN(C(=O)c2cnc3c(c2)OC[C@H](C)N3)C1 [Example 13] | 23 nM | 1.8 nM |  |  |  |
| CN(C(=O)C1CC1)[C@H]1CCN(C(=O)c2cnc3c(c2)OCC2(CC2)N3)C1 [Example 17] | 8.8 nM |  | 0.7 nM |  |  |
| CC(=O)N(C)[C@H]1CCN(C(=O)c2cnc3c(c2)OC[C@@H](C(C)C)N3)C1 [Example 2] | 26 nM |  |  | 3.6 nM |  |
| O=C(c1cnc2c(c1)OCCC1(CC1)N2)N1CC[C@H](N2CCCC2=O)C1 [Example 25] | 3.1 nM |  | 0.1 nM |  |  |
| CC(=O)N(C)[C@H]1CCN(C(=O)c2cnc3c(c2)OCC(C)(C)N3)C1 [Example 14] | 12 nM |  |  |  |  |
| CC(=O)N(C)[C@H]1CCN(C(=O)c2cnc3c(c2)OC[C@@H](c2ccccc2)N3)C1 [Example 31] |  | 1750 nM |  |  |  |
| CN1C(=O)CCC12CCN(C(=O)c1cnc3c(c1)OCCC1(CC1)N3)C2 (centres unmarked) [Example 27] | 11 nM |  | 1.09 nM |  |  |
| CC(=O)N(C)[C@H]1CCN(C(=O)c2cnc3c(c2)OC[C@H](c2ccccc2)N3)C1 [Example 30] | 43 nM | 2.4 nM |  |  |  |
| CC(=O)N(C)[C@H]1CCN(C(=O)c2cnc3c(c2)OCC2(CC2)N3)C1 [Example 21] | 10 nM | 0.4 nM |  |  |  |
| CC[C@@H]1COc2cc(C(=O)N3CCC(c4ccncc4)C3)cnc2N1 (some centres unmarked) [Example 6] | 99 nM |  |  | 8.9 nM |  |
| O=C(c1cnc2c(c1)OCC1(CC1)N2)N1CCC(c2ccncc2)C1 (single isomer, unassigned) [Example 22] |  |  |  | 0.4 nM | 37 nM |
| O=C(c1cnc2c(c1)OCCN2)N1CCC(c2ccncc2)C1 (centres unmarked) [Example 38] | 210 nM |  |  |  |  |
| CC(=O)N(C)[C@H]1CCN(C(=O)c2cnc3c(c2)O[C@H](CO)CN3)C1 [Example 41] | 18 nM |  |  |  |  |
| CC(=O)N(C)[C@H]1CCN(C(=O)c2cnc3c(c2)OCC(C)(C)CN3)C1 [Example 42] | 16 nM | 1.1 nM |  |  |  |
| C[C@@H]1CNc2ncc(C(=O)N3CCC(c4ccncc4)C3)cc2O1 (some centres unmarked) [Example 33] | 34 nM |  |  | 2.5 nM |  |

Reference: patent US10364255B2, “Heteroaromatic compounds as Vanin inhibitors” (Boehringer Ingelheim International GmbH, priority 2017, dated 2019)
